Reference: the supplement of paper PMC10307832

Tests used:
Test in all cases: relative viability (nuclei count vs DMSO), 5 days (fraction); higher = more cells survive
[1] = compound: C1CNCCC1C2=CC(=NN2)C3=CC=NC=C3 + CC(=O)c1c(C)c2cnc(Nc3ccc(N4CCNCC4)cn3)nc2n(C2CCCC2)c1=O [Palbociclib] (partner 0.5 µM)
Outline: (§1)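 Medians of duplicate plates are given as relative viability. That measure is the nuclei count in treated wells divided by the count in vehicle wells. Counts were taken on 4× images of lung cancer cell lines in 1536-well plates, 5 days after pin-tool dosing the day after seeding with one drug alone or a fixed anchor-drug dose plus five library-drug doses (not always all listed) in √10 steps.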

[2] = compound: C1CNCCC1C2=CC(=NN2)C3=CC=NC=C3 + CC(C)C[C@H](NC(=O)[C@H](Cc1ccccc1)NC(=O)c1cnccn1)B(O)O [Bortezomib] (partner 0.002 µM)
Outline: as §1

[3] = compound: C[C@@H](N)c1ccc(C(=O)Nc2ccnc3[nH]ccc23)cc1 + C[C@]1(O)C[C@@H](c2nc(-c3ccc4ccc(-c5ccccc5)nc4c3)c3c(N)nccn32)C1 [Linsitinib] (partner 1 µM)
Outline: as §1

Tanzisertib + OSI-027 = compound: O[C@H]1CC[C@H](Nc2ncc3nc(Nc4c(F)cc(F)cc4F)n([C@H]4CCOC4)c3n2)CC1 [Tanzisertib] + COc1cccc2cc(-c3nc([C@H]4CC[C@H](C(=O)O)CC4)n4ncnc(N)c34)[nH]c12 [OSI-027] (partner 0.5 µM)
Outline: as §1

Cell Line | relative viability ([1]; first compound 0.08 µM) | relative viability ([1]; first compound 0.8 µM) | relative viability ([1]; first compound 2.53 µM) | relative viability ([1]; first compound 8 µM) | relative viability ([2]; first compound 0.08 µM) | relative viability ([2]; first compound 0.8 µM) | relative viability ([2]; first compound 2.53 µM) | relative viability ([2]; first compound 8 µM) | relative viability ([3]; first compound 0.04 µM) | relative viability ([3]; first compound 0.1265 µM) | relative viability ([3]; first compound 0.4 µM) | relative viability ([3]; first compound 1.265 µM) | relative viability ([3]; first compound 4 µM) | relative viability (Tanzisertib + OSI-027; first compound 0.08 µM) | relative viability (Tanzisertib + OSI-027; first compound 0.253 µM) | relative viability (Tanzisertib + OSI-027; first compound 0.8 µM) | relative viability (Tanzisertib + OSI-027; first compound 2.53 µM) | relative viability (Tanzisertib + OSI-027; first compound 8 µM)
201T | 0.376 | 0.353 | 0.355 | 0.362 | 1.06 | 1.07 | 1.08 | 1.1 | 1.14 | 1.02 | 1.07 | 1.11 | 1.16 | 0.632 | 0.854 | 0.673 | 0.713 | 0.501
A549 |  |  |  |  |  |  |  |  | 0.674 | 0.666 | 0.726 | 0.775 | 0.619 |  |  |  |  | 
A-427 | 0.486 | 0.559 | 0.529 | 0.49 | 1.03 | 0.955 | 1.06 | 0.935 | 1.08 | 1.11 | 1.06 |  | 1.12 | 0.547 | 0.525 | 0.538 | 0.414 | 0.283
ABC-1 | 0.468 | 0.617 | 0.733 | 0.76 | 0.329 | 0.253 | 0.332 | 0.351 | 0.894 | 0.81 | 0.998 | 0.911 | 0.683 | 0.471 | 0.469 | 0.469 | 0.511 | 0.461
BEN | 0.447 | 0.47 | 0.45 | 0.433 | 0.724 | 0.592 | 0.852 | 0.96 | 0.981 | 0.86 | 0.991 | 1.02 | 0.636 | 0.299 | 0.281 | 0.293 | 0.314 | 0.288
CAL-12T | 0.535 | 0.0415 | 0.566 | 0.572 | 1.08 | 1.01 | 1.05 | 1.07 | 0.928 | 0.888 | 0.88 | 1.09 | 0.719 | 0.612 | 0.633 | 0.62 | 0.748 | 0.635
COR-L23 | 0.307 | 0.278 | 0.29 | 0.291 | 0.872 | 0.993 | 0.95 | 0.981 | 0.968 | 0.925 | 0.874 | 0.744 | 0.442 | 0.892 | 0.757 | 0.704 | 0.842 | 0.732
COR-L 105 | 0.394 | 0.405 | 0.421 | 0.472 | 0.737 | 0.746 | 1.01 | 0.851 | 0.917 | 1.02 | 0.857 | 0.845 | 0.436 | 0.663 | 0.686 | 0.682 | 0.631 | 0.444
Calu-6 |  |  |  |  | 0.873 | 1.13 | 1.17 | 1.09 | 0.757 | 0.952 | 0.984 | 0.922 | 0.839 |  |  |  |  | 
ChaGo-K-1 | 0.928 | 0.939 | 0.943 | 0.923 | 0.991 | 1.31 | 1.02 | 0.984 |  |  |  |  |  | 0.673 | 0.615 | 0.583 | 0.51 | 0.472
EBC-1 |  |  |  |  | 0.694 | 0.575 | 0.591 | 0.55 | 1.07 | 0.873 | 0.961 | 1.05 | 0.86 |  |  |  |  | 
EKVX | 0.38 |  | 0.412 | 0.395 | 1.21 | 0.585 | 1.07 | 1.04 | 1.12 | 1.13 | 1.2 | 1.19 | 1.01 | 0.872 | 0.749 | 0.613 | 0.612 | 0.598
EMC-BAC-2 | 0.435 | 0.513 | 0.531 | 0.523 | 0.978 | 1.19 | 1.2 | 1.03 | 0.84 | 0.846 | 0.738 | 0.827 | 0.613 | 0.404 | 0.383 | 0.383 | 0.37 | 0.363
EPLC-272H | 0.343 | 0.359 | 0.326 | 0.334 | 0.971 | 0.913 | 0.965 | 0.993 | 1.34 | 1.24 | 1.28 |  | 1.13 | 0.285 | 0.264 | 0.25 | 0.314 | 0.251
H3255 | 0.309 | 0.338 | 0.327 | 0.346 | 0.826 | 0.835 | 1.41 | 0.741 | 0.997 | 1.04 | 1.26 | 0.957 | 0.947 | 0.513 | 0.644 | 0.659 | 0.479 | 0.48
HARA | 0.284 | 0.282 | 0.281 | 0.28 | 1 | 1.28 | 1.1 | 1.15 | 1.09 | 1.06 | 1.15 | 0.996 | 0.521 | 0.74 | 0.496 | 0.537 | 0.45 | 0.0888
HCC-15 | 0.734 | 0.849 | 0.79 | 0.699 | 0.991 | 1.23 | 0.994 | 0.938 | 0.951 | 0.888 | 0.845 |  | 0.797 | 0.834 | 0.652 | 0.735 | 0.606 | 0.327
HCC-44 | 0.994 | 0.997 | 1 | 0.97 | 0.911 | 0.93 | 1 | 0.886 | 0.703 | 0.682 | 0.708 | 0.713 | 0.532 | 0.665 | 0.557 | 0.546 | 0.561 | 0.353
HCC-78 | 0.503 | 0.429 | 0.472 | 0.479 | 0.439 | 0.405 | 0.467 | 0.619 | 0.776 | 0.518 | 0.804 | 0.735 | 0.424 | 0.344 | 0.376 | 0.396 | 0.382 | 0.316
HCC-366 | 0.336 | 0.409 | 0.398 | 0.385 | 0.856 | 1.11 | 1.08 | 1.04 | 0.615 | 0.63 | 0.785 |  | 0.49 | 0.968 | 0.888 | 0.942 | 0.977 | 0.051
